US10828303B2, “Composition comprising combination of TRH analog with arundic acid, and pharmaceutically acceptable salt of arundic acid” (Brivention Pharmaceutical (Shanghai) Inc., priority 2016, dated 2020)
Several values for one entry are separate records, joined by “and”; a condition that tells them apart may be missing. Identical values can stand only once.

Assays:
[1] = system: patients with Alzheimer's disease or patients with cerebrovascular dementia; settings: reported in literature; cited from earlier work
[2] = system: four-vessel occlusion model of rats; assay: Morris water maze Hidden test in four-vessel occlusion model; type: in vivo, rat; settings: for Hidden test Latency / Hidden test Total distance moved: 4-VO rats; for Hidden test Latency / Hidden test Total distance moved / Time to reach the platform in the Hidden test, in words / Total distance moved in the Hidden test, in words: oral 28 d: arundic acid 30, taltirelin 10, combination 10+3 mg/kg/day; for Hidden test, At the time of grouping Latency: before administration, 1 week after 4-VO; for Time to reach the platform in the Hidden test, in words / Total distance moved in the Hidden test, in words: vs Group 2 control
Method: A Morris water maze test was performed by using a circular pool (168 cm in diameter and 40 cm in depth) filled with water, and a platform (10 cm in diameter and 30 cm in height) for escape of rats. In Zone 3, one transparent plastic escape platform (10 cm in diameter and 30 cm in height) was set at a location 40 cm away from the center of the pool, and […] away from the periphery of the pool. The water temperature of the water maze during the experiment was kept at 23° C. (±1.5° C.). A Hidden test was performed at the time of grouping 1 week after four-vessel occlusion, and on the day following the final administration of test drugs. For the Hidden test, the pool was filled with water to a height of 1 cm above the platform (water depth: 31 cm). A Transfer test was performed 3 days after the final administration of test drugs. For the Transfer test, the platform was removed, and the pool was filled with water to a water depth of 31 cm. To enable the rats to memorize surrounding various spatial arrangements, cues, such as posters and photographs, were placed on the wall. The cues always remained at the same locations during the experiment (FIG. 1: a plan view of Morris water maze, and the laboratory layout).
3) One week after restoration of blood flow, 5 trials of the Hidden test according to the Morris water maze test were performed with intervals of 30 minutes, and a cut-off time of 180 seconds. The rats were grouped by using swimming escape latency (time to reach the platform) as an index. After grouping, oral administration of the drug(s) was started. 4) The drug(s) were orally administered for 28 days. 5) On the day following the final administration of the drug, 5 trials of the Hidden Test for assessing spatial memory by using a water maze were performed with intervals of 30 minutes, and a cut-off time of 180 seconds. After 30 minutes, the platform was removed, and a Transfer test was performed with the pool being filled with water to a water depth of 31 cm.
From the starting point in Zone 1, the rats were thrown into a water maze with their heads being directed toward the outside of the water maze. The location of the platform was fixed at a point (corresponding to E in FIG. 1) on the east side in the water maze (corresponding to Zone 3 in FIG. 1). The maximum time of one trial was 180 seconds. When a rat reached the platform within 180 seconds, the rat was allowed to stand on the platform for 15 seconds. […] This rat was expected to learn the location of the platform by using surrounding various spatial arrangements as cues during the 180 seconds of the Hidden test and 15 seconds of being allowed to stand on the platform (Hidden test). In the Hidden test, swimming trajectory to the goal, swimming distance, swimming escape latency (time to reach the platform), and average swimming speed were measured per trial.
The behaviors of the rats in each trial were automatically analyzed with a CCD camera and the SMART (produced by Kyoto L Giken) behavioral analysis program by binarization of the white color of rats' fur and black ash color of the surrounding area.
Significant differences between the groups in spatial memory according to the Morris water maze method were determined by the nonparametric Dunnett's multiple comparison test. 6) After completion of the Morris water maze test, the brain of each rat was perfusion-fixed with 4% paraformaldehyde. The details are as follows.

[3] = system: rats with anoxia-induced amnesia; settings: Non-patent Literature 1; cited from earlier work
[4] = system: rats with lesioned bilateral regions including the ventral globus pallidus, substantia innominata, and preoptic area (BFs); settings: Non-patent Literature 1; cited from earlier work
[5] = system: reactive astrocytes; settings: Patent Literature 2; cited from earlier work

SMILES	Improvement effect compared with TRH [1]	Hidden test Latency ([2]; Mean ± S.E.)	Hidden test Total distance moved ([2]; Mean ± S.E.)	Hidden test, At the time of grouping Latency ([2]; Mean ± S.E.)	Hidden test Latency ([2]; individual rat, 3 mg/kg/day)	Hidden test Total distance moved ([2]; individual rat, 3 mg/kg/day)	Hidden test, At the time of grouping Latency ([2]; individual rat)	Time to reach the platform in the Hidden test, in words [2]	Total distance moved in the Hidden test, in words [2]	Memory retrieval, one-trial passive avoidance learning test [3]	Memory retrieval, active avoidance learning test [4]	GABAA receptor responsiveness [5]	Spatial learning capacity and spatial memory capacity in the Morris water maze test, in words ([2]; oral 28 d: arundic acid 30, combination 10+3 mg/kg/day)
CN1C(=O)C[C@@H](C(=O)N[C@@H](Cc2c[nH]cn2)C(=O)N2CCC[C@H]2C(N)=O)NC1=O [Taltirelin, N-[(4S)-1-methyl-2,6-dioxohexahydropyrimidine-4-carbonyl]-L-histidyl-L-prolinamide]	higher improvement effect thereon than TRH	83 ± 6.6 s	16.1 ± 1.6 m	102 ± 8.3 s	68.9 s and 88.1 s and 76.4 s and 99.1 s	19.8 m and 15.0 m and 12.3 m and 17.1 m	100.1 s and 97.2 s and 85.5 s and 124.8 s	no improvement in time to reach the platform	not considered to be significantly improved	improve memory retrieval	improve memory retrieval	–	–
CCCCCC[C@@H](CCC)C(=O)O [Arundic acid, (R)-(−)-2-propyloctanoic acid]	–	78 ± 5.2 s	17.4 ± 2.1 m	102 ± 9.2 s	73.8 s and 82.2 s and 90.3 s and 66.5 s	13.0 m and 15.8 m and 17.9 m and 22.8 m	112.5 s and 86.9 s and 123.2 s and 87 s	no improvement in time to reach the platform	not considered to be significantly improved	–	–	GABAA receptor responsiveness is recovered	did not affect spatial learning capacity and spatial memory capacity
